Numbering of substitutions follows the chain as printed.
Legend:
MsPLD [1] = molecular target: T1, MsPLD (Moritella sp. JT01, UniProt A0A137SLD1, S169C/T227C/D246C/A349C); experiment: coupled choline oxidase/peroxidase colorimetric assay ([…] nm), non-linear regression; assay type: biochemical; details: 35 °C, pH 8.0, PC 1.0-3.0 mM, 5 min; hydrolysis; free enzyme
T1 construct: gene AKG98_3441; tag removal not mentioned
T1 sequence (A0A137SLD1 29-578 S169C/T227C/D246C/A349C): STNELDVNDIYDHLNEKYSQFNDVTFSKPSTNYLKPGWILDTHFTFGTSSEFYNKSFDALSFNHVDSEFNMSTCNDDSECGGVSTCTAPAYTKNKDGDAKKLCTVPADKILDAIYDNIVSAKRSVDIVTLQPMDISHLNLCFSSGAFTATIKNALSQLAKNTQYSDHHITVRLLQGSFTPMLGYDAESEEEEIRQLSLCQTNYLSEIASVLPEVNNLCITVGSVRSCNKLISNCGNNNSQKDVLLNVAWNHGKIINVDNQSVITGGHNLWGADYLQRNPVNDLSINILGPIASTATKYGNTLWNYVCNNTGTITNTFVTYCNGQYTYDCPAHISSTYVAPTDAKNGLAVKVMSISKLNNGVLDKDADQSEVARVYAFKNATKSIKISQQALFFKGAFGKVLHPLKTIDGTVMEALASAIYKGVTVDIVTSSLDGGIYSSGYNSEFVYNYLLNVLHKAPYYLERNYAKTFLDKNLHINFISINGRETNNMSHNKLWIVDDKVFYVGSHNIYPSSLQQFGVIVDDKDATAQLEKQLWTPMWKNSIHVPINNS

MsPLD [2] = molecular target: T2, MsPLD (Moritella sp. JT01, UniProt A0A137SLD1); experiment: as above; assay type: biochemical; details: 35 °C, pH 8.0, PC 1.0-3.0 mM, 5 min; hydrolysis; free enzyme
T2 construct: gene AKG98_3441; tag removal not mentioned
T2 sequence (A0A137SLD1 29-578): T1 sequence (A0A137SLD1 29-578 S169C/T227C/D246C/A349C) with C141S, C199T, C218D, C321A

Substance: L-α-phosphatidylcholine
- Km (MsPLD [1]): 2.71 ± 0.89 mM
- Km (MsPLD [2]): 3.44 ± 0.81 mM

Source: publication PMC9570233, “Improving Both the Thermostability and Catalytic Efficiency of Phospholipase D from Moritella sp. JT01 through Disulfide Bond Engineering Strategy” (International Journal of Molecular Sciences, 2022)
